A short description of this assay: Tested for inhibition against purified catalytic subunit of protein phosphatase-1 from rabbit skeletal muscle.

As a reminder, the IC50 is the concentration at which inhibition is half-maximal. Lower therefore signals greater potency. For the compound `C/C=C1/C(=O)N[C@@H](C(=O)O)[C@H](C)C(=O)N[C@@H](C(C)C)C(=O)N[C@@H](/C=C/C(C)=C/[C@H](C)[C@H](Cc2ccccc2)OC)[C@H](C)C(=O)N[C@@H](C(=O)O)CCC(=O)N1C` [Motuporin], the concentration for half-maximal inhibition (IC50) is under 1 nM.

These data come from BindingDB's records for doi:10.1016/S0960-894X(00)80281-4 (1993).
